Assay results: PMC11513924, “Addressing the Intracellular Vestibule of the Plasmodial Lactate Transporter PfFNT by p-Substituted Inhibitors Amplifies In Vitro Activity” (Journal of Medicinal Chemistry, 2024)

Legend:
[1] = test system: Plasmodium falciparum 3D7 parasites; details: ref Golldack[4] et al. 2017; read-out: EC50 (in vitro, 3D7); cited from earlier work
PfFNT [2] = biological target: T1, PfFNT (Plasmodium falciparum, UniProt O77389); test: Fluorescence cross-correlation spectroscopy (FCCS) competition binding to solubilized PfFNT-GFP; details: competition against BH267.meta-DY647 tracer, Cheng Prusoff; read-out: Ki (FCCS, protein)
T1 construct: expressed in transfected cells; membranes solubilized
T1 sequence (O77389 1-309): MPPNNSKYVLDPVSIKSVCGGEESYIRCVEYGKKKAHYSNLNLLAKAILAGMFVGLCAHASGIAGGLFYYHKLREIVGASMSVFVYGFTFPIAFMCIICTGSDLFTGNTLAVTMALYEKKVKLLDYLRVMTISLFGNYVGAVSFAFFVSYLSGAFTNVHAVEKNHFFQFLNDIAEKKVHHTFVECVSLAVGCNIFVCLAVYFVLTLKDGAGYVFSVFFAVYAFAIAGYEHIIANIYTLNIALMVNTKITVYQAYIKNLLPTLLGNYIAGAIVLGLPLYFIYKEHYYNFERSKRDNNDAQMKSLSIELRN
Procedure: FCCS measurements were conducted and analyzed as before.[20],[30] Briefly, membranes of stably transfected cells expressing PfFNT with a C-terminal GFP (green) were solubilized. BH267.meta 2 fused with DY647 (red) was used as a tracer to monitor the binding of compounds in a competition assay. Assays were done in […] glass bottom plates (cat. no. PS96B-G175, SWISSCI, Switzerland) using a plate reader (Insight, Evotec Technologies, Germany) fitted with a U-Apo300 40× water immersion lens, NA 1.15 (Olympus, Japan). Excitation was done with an argon-ion laser (488 nm) and a helium–neon laser (633 nm). Fluorescence fluctuations were recorded 10 times for 5 s per sample and fitted using FCS+ plus Analyze (PerkinElmer software). Initially, IC50 values were determined from the concentration of the dual labeled complex titrated against a competitor in a range of 100 pM to 100 μM (Figure S1). Then, Ki values were calculated using the Cheng Prusoff equation[31] based on the previously determined KD value for the BH267.meta-DY647 tracer.[20]

[3] = test system: Plasmodium falciparum 3D7 parasites; test: P. falciparum 3D7 culture growth assay in erythrocytes (in vitro activity); type: cell-based; details: 50 nM compound
Procedure: The parasitemia was measured using an LSR II FACS (BD Biosciences) as described.[34],[35] Growth was assessed as % of untreated control. EC50 curves were plotted using Graph Pad Prism.
Transport assays in yeast were done in triplicate biological replicates. At least nine technical replicates were measured around the IC50 value, concentrations with no or full inhibition were determined from at least three technical replicates. […] IC50 and EC50 curves were fitted by the Hill equation with variable slope (Graph Pad Prism 10). Error bars denote ± SEM (for n ≥ 3) or ± range (for n = 2). […] Cytotoxicity was determined from biological triplicates; error is shown as SEM.

PfFNT [4] = biological target: T1, PfFNT; details: 14C-lactate transport, PfFNT wild type; ref Golldack[4] et al. 2017; read-out: IC50 (transport, yeast); cited from earlier work

## MMV007839 [compound 1, reference compound]
[1]
  EC50: 140 ± 10 nM
PfFNT [2]
  Ki: 83 ± 33 nM
[3]; % of untreated control
  % Growth at 50 nM (in vitro, 3D7): > 90%
[3]; 100 minus % growth
  inhibitory activity at 50 nM (in vitro, 3D7): < 10%
PfFNT [4]
  IC50: 170 ± 10 nM
